What was measured:
Cathepsin S = Cathepsin S (Homo sapiens, UniProt P25774); experiment: Cathepsin S inhibition assay (fluorogenic peptide substrate); assay type: biochemical; conditions: Table II, compounds of Formula I; read-out: Ki Cat. S
Method in brief: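 Ki values come from nonlinear fitting of inhibited hydrolysis rates, taking free and total inhibitor concentrations as equal. Rates measured as rising fluorescence at 380/450 nm after reaction start with 50 μM final acetyl-HPVK-aminocarbamoylcoumarin.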

Cathepsin K = molecular target: T1, Cathepsin K (Homo sapiens, UniProt P43235); experiment: Cathepsin K inhibition assay (fluorogenic peptide substrate); selectivity ratio vs cathepsin S; assay type: biochemical; conditions: ratio of cathepsin K inhibition constant to cathepsin S inhibition constant; Table II
T1 sequence (P43235 115-329): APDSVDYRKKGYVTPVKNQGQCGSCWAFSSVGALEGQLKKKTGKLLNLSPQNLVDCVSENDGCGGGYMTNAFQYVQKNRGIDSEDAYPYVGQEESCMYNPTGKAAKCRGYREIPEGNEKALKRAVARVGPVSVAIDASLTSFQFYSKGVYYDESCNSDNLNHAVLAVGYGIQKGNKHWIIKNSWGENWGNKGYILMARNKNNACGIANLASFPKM
Method in brief: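 Inhibition constants for competitive inhibitors come from apparent values fitted to enzyme progress curves. Substrate, acetyl-Lys-His-Pro-Lys-aminocarbamoylcoumarin (40 μM final), starts the reaction; fluorescence rise read at 380 nm excitation, 450 nm emission. Selectivity ratio: other cathepsin constant over cathepsin S constant.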

Chain of Cathepsin S (P25774 115-331, species assumed): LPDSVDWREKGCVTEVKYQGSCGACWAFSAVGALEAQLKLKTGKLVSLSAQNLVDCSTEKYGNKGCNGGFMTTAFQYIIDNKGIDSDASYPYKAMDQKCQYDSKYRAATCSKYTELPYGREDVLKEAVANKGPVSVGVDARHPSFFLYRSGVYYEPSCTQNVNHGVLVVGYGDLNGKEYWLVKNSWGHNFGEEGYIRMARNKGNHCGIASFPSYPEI

Ki (Cathepsin S) [nM] | Selectivity for Cat. S over Cat. K (Cathepsin K) | SMILES
< 100 | +++ (+++, >1000) | O=C(Cc1cccs1)N[C@@H](CC1CCCCC1)C(=O)NCCNc1ccc(F)cc1 [Compound 76, 3-Cyclohexyl-N-[2-(4-fluoro-phenylamino)-ethyl]-2-(S)-(2-thiophen-2-yl-acetylamino)-propionamide]
< 10000 | + (+, >10) | CC(=O)N1CCC(C(=O)N[C@@H](CC2CCCCC2)C(=O)NCCNc2ccc(F)cc2)CC1 [Compound 79, 1-Acetyl-piperidine-4-carboxylic acid (S)-{2-cyclohexyl-1-[2-(4-fluoro-phenylamino)-ethylcarbamoyl]-ethyl}-amide]
< 1000 | +++ (+++, >1000) | COc1cc(OC)nc(-c2ccc(C(=O)N[C@@H](CC3CCCCC3)C(=O)NCCNc3ccc(OC(F)(F)F)cc3)cc2)n1 [Compound 80, N-(S)-{2-cyclohexyl-1-[2-(4-trifluoromethoxy-phenylamino)-ethylcarbamoyl]-ethyl}-4-(4,6-dimethoxy-pyrimidin-2-yl)-benzamide]
< 1000 | ++ (++, >100) | O=C(N[C@@H](CC1CCCCC1)C(=O)NCCNc1ccc(OC(F)(F)F)cc1)C1CCN(c2ncc(Br)cn2)CC1 [Compound 81, 1-(5-Bromo-pyrimidin-2-yl)-piperidine-4-carboxylic acid (S)-{2-cyclohexyl-1-[2-(4-trifluoromethoxy-phenylamino)-ethylcarbamoyl]-ethyl}-amide]
< 1000 | + (+, >10) | COc1ccc(NCCNC(=O)[C@H](Cc2ccccc2)NC(=O)CC2C=CCC2)cc1 (stereo partly drawn) [Compound 82, (S)-2-(2-Cyclopent-2-enyl-acetylamino)-N-[2-(4-methoxy-phenylamino)-ethyl]-3-phenyl-propionamide]
< 100 | ++ (++, >100) | O=C(Cc1c[nH]c2ccccc12)NC(CC1CCCCC1)C(=O)NCCNc1ccc(F)cc1 (stereo not shown) [Compound 83, 3-Cyclohexyl-N-[2-(4-fluoro-phenylamino)-ethyl]-2-(2-1H-indol-3-yl-acetylamino)-propionamide]

Continued, compound first:

SMILES | Ki (Cathepsin S) [nM] | Selectivity for Cat. S over Cat. K (Cathepsin K)
COc1cc(OC)nc(Oc2cccc(C(=O)N[C@@H](CC3CCCCC3)C(=O)NCCNc3ccc(OC(F)(F)F)cc3)c2)n1 [Compound 73, N-(S)-{2-cyclohexyl-1-[2-(4-trifluoromethoxy-phenylamino)-ethylcarbamoyl]-ethyl}-3-(4,6-dimethoxy-pyrimidin-2-yloxy)-benzamide] | < 100 | ++ (++, >100)
COc1cccc(-c2cccc(C(=O)N[C@@H](CC3CCCCC3)C(=O)NCCNc3ccc(OC(F)(F)F)cc3)c2)c1 [Compound 74, 3′-Methoxy-biphenyl-3-carboxylic acid (S)-{2-cyclohexyl-1-[2-(4-trifluoromethoxy-phenylamino)-ethylcarbamoyl]-ethyl}-amide] | < 100 | +++ (+++, >1000)
CC[C@@H](C(=O)N[C@@H](CCC1CCCCC1)C(=O)NCCNc1ccc(OC)cc1)c1ccccc1 [Compound 75, N-{3-Cyclohexyl-1-(S)-[2-(4-methoxy-phenylamino)-ethylcarbamoyl]-propyl}-2-(R)-phenyl-butyramide] | < 100 | +++ (+++, >1000)
O=C(Cc1ccsc1)N[C@@H](CC1CCCCC1)C(=O)NCCNc1ccc(F)cc1 [Compound 77, 3-Cyclohexyl-N-[2-(4-fluoro-phenylamino)-ethyl]-2-(S)-(2-thiophen-3-yl-acetylamino)-propionamide] | < 100 | ++ (++, >100)
COc1ccc(NCCNC(=O)[C@H](Cc2ccccc2)NC(=O)c2cccc(Br)c2)cc1 [Compound 78, (S)-3-Bromo-N-{1-[2-(4-methoxy-phenylamino)-ethylcarbamoyl]-2-phenyl-ethyl}-benzamide] | < 100 | + (+, >10)
